Drawing on PubChem BioAssay AID2060893 (Molecular Pharmacology Branch, DTP, NCI, 2025), this text covers IC50 and viability, T/C for three molecules.

Each structure is given as a SMILES string. pIC50: −log10 of the molar value. A value given as a limit tells only on which side of the number the result lay.

The test system of this test is K86415-001-R-J1-PDC complex spheroids, viability. Description: Anticancer human tumor K86415-001-R-J1-PDC patient-derived lung adenocarcinoma cell line growth inhibition [RAS]. Particulars: for viability, T/C: stronger effect = lower value. In a few lines:
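Tumour cells grown as complex spheroids with HUVEC endothelial cells and mesenchymal stem cells, treated with RAS pathway inhibitor combinations. Each agent spans half-log steps from near clinical Cmax, or 10 microM where Cmax is unknown.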
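Also: spheroids exposed to agents for seven days before readout.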

For orientation: pIC50 means the negative decadic logarithm of the IC50, by convention in mol/L. A word on the viability, T/C: it is the ratio of treated to control. As for `O=C(c1ccc(F)c(F)c1Nc1ccc(I)cc1F)N1CC(O)([C@@H]2CCCCN2)C1` + CCn1c(-c2cccnc2C(C)OC)c2c3cc(ccc31)N1CCOC(CC(NC(=O)C(C(C)C)N(C)C(=O)C3(F)CCN(C(=O)C#CC(C)(C)N(C)C)CC3)C(=O)N3CCCC(N3)C(=O)OCC(C)(C)C2)C1, the negative-log IC50 (pIC50) runs as follows: (curve of first compound, second compound 0.000949 µM) greater than 8.50; (curve of first compound, second compound 0.003 µM) greater than 8.50; (curve of first compound, second compound 0.00949 µM) greater than 8.50; (curve of first compound, second compound 0.03 µM) greater than 8.50; (curve of first compound, second compound 0.0949 µM) greater than 8.50; (curve of first compound, second compound 0.3 µM) greater than 8.50. In addition, the viability, T/C reads like this: (second compound 0.000949 µM, first compound 0.00316 µM) 33.7%; (second compound 0.000949 µM, first compound 0.01 µM) 29.1%; (second compound 0.000949 µM, first compound 0.0316 µM) 11.7%; (second compound 0.000949 µM, first compound 0.1 µM) 15.2%; (second compound 0.000949 µM, first compound 0.316 µM) 6.3%; (second compound 0.000949 µM, first compound 1 µM) 2.8%. The viability, T/C is 11.8% (second compound 0.003 µM, first compound 0.00316 µM); 8.85% (second compound 0.003 µM, first compound 0.01 µM); 7.64% (second compound 0.003 µM, first compound 0.0316 µM); 7.02% (second compound 0.003 µM, first compound 0.1 µM); 4.31% (second compound 0.003 µM, first compound 0.316 µM); 2.26% (second compound 0.003 µM, first compound 1 µM). Moreover, the viability, T/C by setting is: (second compound 0.00949 µM, first compound 0.00316 µM) 11.9%; (second compound 0.00949 µM, first compound 0.01 µM) 9.16%; (second compound 0.00949 µM, first compound 0.0316 µM) 7.57%; (second compound 0.00949 µM, first compound 0.1 µM) 6.25%; (second compound 0.00949 µM, first compound 0.316 µM) 3.49%; (second compound 0.00949 µM, first compound 1 µM) 2.55%. The viability, T/C is 10.5% (second compound 0.03 µM, first compound 0.00316 µM); 8.81% (second compound 0.03 µM, first compound 0.01 µM); 12.8% (second compound 0.03 µM, first compound 0.0316 µM); 7.27% (second compound 0.03 µM, first compound 0.1 µM); 2.71% (second compound 0.03 µM, first compound 0.316 µM); 2.49% (second compound 0.03 µM, first compound 1 µM). Besides, the viability, T/C is, setting by setting: (second compound 0.0949 µM, first compound 0.00316 µM) 11.1%; (second compound 0.0949 µM, first compound 0.01 µM) 9.53%; (second compound 0.0949 µM, first compound 0.0316 µM) 8.98%; (second compound 0.0949 µM, first compound 0.1 µM) 6.47%; (second compound 0.0949 µM, first compound 0.316 µM) 2.33%; (second compound 0.0949 µM, first compound 1 µM) 1.78%. Also, the viability, T/C (second compound 0.3 µM, first compound 0.00316 µM) is 12.8%; the viability, T/C (second compound 0.3 µM, first compound 0.01 µM) was 11%; the viability, T/C (second compound 0.3 µM, first compound 0.0316 µM) is 8.71%; the viability, T/C (second compound 0.3 µM, first compound 0.1 µM) was 5.63%; the viability, T/C (second compound 0.3 µM, first compound 0.316 µM) is 2.69%; the viability, T/C (second compound 0.3 µM, first compound 1 µM) is 2.11%.
Regarding `CCn1c(-c2cccnc2C(C)OC)c2c3cc(ccc31)N1CCOC(CC(NC(=O)C(C(C)C)N(C)C(=O)C3(F)CCN(C(=O)C#CC(C)(C)N(C)C)CC3)C(=O)N3CCCC(N3)C(=O)OCC(C)(C)C2)C1` (stereo unspecified), the viability, T/C reads like this: (compound 0.000949 µM) 41.9% [middle of 8 runs]; (compound 0.003 µM) 13.8% [middle of 8 runs]; (compound 0.00949 µM) 11.6% [middle of 7 runs]; (compound 0.03 µM) 12.7% [middle of 8 runs]; (compound 0.0949 µM) 14.9% [middle of 8 runs]; (compound 0.3 µM) 14% [middle of 8 runs]. Further, the pIC50 (compound alone, run of 07/09/2024) was greater than 9.02.
Consider `CC(=O)OC12COC1CC(O)C1(C)C(=O)C(O)C3=C(C)C(OC(=O)C(O)C(NC(=O)OC(C)(C)C)c4ccccc4)CC(O)(C(OC(=O)c4ccccc4)C21)C3(C)C` (stereo unspecified), for which the viability, T/C (compound 0.0316 µM) was 32.8% [middle of 4 runs]; the viability, T/C (compound 0.1 µM) was 30.1% [middle of 4 runs]; the viability, T/C (compound 0.316 µM) is 31% [middle of 4 runs]; the viability, T/C (compound 1 µM) is 34.2% [middle of 4 runs]; the viability, T/C (compound 3.16 µM) was 36.2% [middle of 4 runs]; the viability, T/C (compound 10 µM) was 32.1% [middle of 4 runs]. Also, the pIC50 (curve of compound) was greater than 7.50.
